Among the data in patent publication US9357777B2, “Method for effective management of helicoverpa armigera” (priority 2012, dated 2016) are Ki and IC50 values, retold here.

Bridges are numbered along the chain shown (N, C = ends). Where no end group is shown, it is not given here.

The test deals with T1, bovine trypsin (Bos taurus, UniProt P00760).
T1 construct: purchased Sigma-Aldrich
T1 sequence (P00760 24-246): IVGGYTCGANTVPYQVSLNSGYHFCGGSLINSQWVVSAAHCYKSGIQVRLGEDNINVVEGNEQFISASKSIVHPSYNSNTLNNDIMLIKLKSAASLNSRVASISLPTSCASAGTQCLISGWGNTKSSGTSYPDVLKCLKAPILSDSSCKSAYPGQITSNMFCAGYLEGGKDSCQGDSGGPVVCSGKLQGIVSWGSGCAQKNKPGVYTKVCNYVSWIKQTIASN
Kind of test: Inhibition kinetics with bovine trypsin (BApNA substrate). The format is biochemical. The method, then: Michaelis-Menten constant (Km) for trypsin was calculated by using various concentrations of BApNA substrate (1 to 5 mM), and then plotting double reciprocal curve with 1/(v) and 1/[S]. The kinetic properties of IRDs were analysed over a range of concentration of inhibitors (1 μM to 1 mM). IC50 values for each inhibitor were calculated from the sigmoid curve indicating the best fit for the percentage inhibition data obtained. The values of Ki values for each inhibitor were calculated directly from IC50 values using Cheng-Prusoff's classical equation (Copeland et al., 1995).

By Ki is commonly meant a dissociation constant, usually derived from enzyme kinetics or from competition with a known ligand. The IC50 is the midpoint of a concentration-inhibition curve. Read a low IC50 as higher potency. For the sequence “QPICTNSSAGLKGCNYYNADGTFICEGESDPNHPKACPKNCDPNIAYSLC (disulfide 4-41, 14-50; cysteines drawn unpaired) [IRD-9]”, where the note is “calculated from IC50 by Cheng-Prusoff's equation, read-out: Inhibition constant (Ki)”, the Ki is approximately 2200 nM. In addition, the IC50 (substrate BApNA 1 mM, FIG. 2C) was approximately 2200 nM.
